Results reported in the supplement of paper PMC13380429.

Legend:
Conditions in all cases: 72 h
Caco-2 [1] = assay: cell viability relative to DMSO; higher = less toxic
Calu-3 [2] = assay: as above
HepG2 [3] = assay: as above
U2OS [4] = assay: as above
Caco-2 [5] = assay: relative viability EC50 (midpoint between 100% and the lowest measured viability); higher = less toxic
Calu-3 [6] = assay: as above
HepG2 [7] = assay: as above
U2OS [8] = assay: as above
Caco-2 [9] = assay: drug sensitivity score (DSS) for viability; higher = more toxic; extreme values may be limits of the assay
Calu-3 [10] = assay: as above
HepG2 [11] = assay: as above
U2OS [12] = assay: as above
Vero E6 [13] = assay: cell viability relative to DMSO; higher = less toxic
Vero E6 [14] = assay: relative viability EC50 (midpoint between 100% and the lowest measured viability); higher = less toxic
Vero E6 [15] = assay: drug sensitivity score (DSS) for viability; higher = more toxic; extreme values may be limits of the assay

SMILES	cell viability (Caco-2 [1]; 1 nM)	cell viability (Caco-2 [1]; 10 nM)	cell viability (Caco-2 [1]; 100 nM)	cell viability (Caco-2 [1]; 1000 nM)	cell viability (Caco-2 [1]; 10000 nM)	cell viability (Calu-3 [2]; 1 nM)	cell viability (Calu-3 [2]; 10 nM)	cell viability (Calu-3 [2]; 100 nM)	cell viability (Calu-3 [2]; 1000 nM)	cell viability (Calu-3 [2]; 10000 nM)	cell viability (HepG2 [3]; 1 nM)	cell viability (HepG2 [3]; 10 nM)	cell viability (HepG2 [3]; 100 nM)	cell viability (HepG2 [3]; 1000 nM)	cell viability (HepG2 [3]; 10000 nM)	cell viability (U2OS [4]; 1 nM)	cell viability (U2OS [4]; 10 nM)	cell viability (U2OS [4]; 100 nM)	cell viability (U2OS [4]; 1000 nM)	cell viability (U2OS [4]; 10000 nM)	relative viability EC50 (Caco-2 [5])	relative viability EC50 (Calu-3 [6])	relative viability EC50 (HepG2 [7])	relative viability EC50 (U2OS [8])	drug sensitivity score (Caco-2 [9])	drug sensitivity score (Calu-3 [10])	drug sensitivity score (HepG2 [11])	drug sensitivity score (U2OS [12])	cell viability (Vero E6 [13]; 1 nM)	cell viability (Vero E6 [13]; 10 nM)	cell viability (Vero E6 [13]; 100 nM)	cell viability (Vero E6 [13]; 1000 nM)	cell viability (Vero E6 [13]; 10000 nM)	relative viability EC50 (Vero E6 [14])	drug sensitivity score (Vero E6 [15])
O=C(/C=C/c1ccccc1)NC(NC(=S)Nc1cccc2cccnc12)C(Cl)(Cl)Cl (centres undefined) [salubrinal]	126%	102%	96.7%	103%	80.1%	99.4%	100%	97.6%	109%	87.1%	107%	111%	99.1%	101%	108%	98.3%	107%	101%	102%	91.1%	> 10 µM	> 10 µM	> 10 µM	> 10 µM	0.4	0	0	0	–	–	–	–	–	–	–
O=C(NC1CCN(Cc2ccccc2)CC1)c1ccc(I)cc1 [4-IBP]	104%	101%	99.4%	103%	88.8%	104%	104%	104%	95.9%	102%	94.5%	108%	104%	105%	68%	102%	99.9%	101%	97.6%	98.8%	> 10 µM	> 10 µM	–	> 10 µM	0	0	1.2	0	109%	106%	107%	101%	93.2%	> 10 µM	0
CCn1cc(-c2cccc(C(F)(F)F)c2)c2sc(C(=N)NC3CCS(=O)(=O)CC3)cc2c1=O [I-BRD9]	111%	102%	97%	97.8%	93.5%	112%	99.5%	106%	95.4%	79.5%	94.4%	99.2%	98.6%	97.5%	63.4%	103%	102%	99.1%	99.5%	92%	> 10 µM	> 10 µM	–	> 10 µM	0	1.2	2.1	0	95.1%	95.8%	98.7%	98.1%	92.3%	> 10 µM	0
CC(C)(C)Sc1c(CC(C)(C)C(=O)O)n(Cc2ccc(Cl)cc2)c2ccc(OCc3ccc4ccccc4n3)cc12 [quiflapon]	104%	102%	97%	96%	102%	91.5%	97.3%	98.7%	102%	110%	105%	95.6%	96.8%	98.3%	104%	102%	108%	104%	99.6%	109%	> 10 µM	> 10 µM	> 10 µM	> 10 µM	0	0	0	0	–	–	–	–	–	–	–
